The IC50 is the point on the concentration scale where inhibition reaches its midpoint. Read a low IC50 as greater potency.

One assay has as its target human orexin-2 receptor (Homo sapiens (Human), UniProt O43614). The assay is described as follows: FLIPR Ca2+ Flux Assay, orexin-2 receptor (hOX2R FLIPR). Particulars: CHO cells expressing the human orexin-2 receptor; agonist 70 pM Ala-6,12 human orexin-A. The class given is cell-based. The procedure:
(§1) The utility of the compounds in accordance with the present invention as orexin receptor OX1R and/or OX2R antagonists may be readily determined without undue experimentation by methodology well known in the art, including the “FLIPR Ca^2+ Flux Assay” (Okumura et al., Biochem. Biophys. Res. Comm. 280:976-981, 2001). In a typical experiment the OX1 and OX2 receptor antagonistic activity of the compounds of the present invention was determined in accordance with the following experimental method. For intracellular calcium measurements, Chinese hamster ovary (CHO) cells expressing the rat orexin-1 receptor or the human orexin-2 receptor, are grown in Iscove's modified DMEM containing 2 mM L-glutamine, […], 1% hypoxanthine-thymidine supplement, 100 U/ml penicillin, 100 μg/ml streptomycin and 10% heat-inactivated fetal calf serum (FCS). The cells are seeded at 20,000 cells/well into Becton-Dickinson black 384-well clear bottom sterile plates coated with poly-D-lysine. All reagents were from GIBCO-Invitrogen Corp. The seeded plates are incubated overnight at 37° C. and 5% CO2. Ala-6,12 human orexin-A as the agonist is prepared as a 1 mM stock solution in 1% bovine serum albumin (BSA) and diluted in assay buffer (HBSS containing 20 mM HEPES, 0.1% BSA and 2.5 mM probenecid, pH7.4) for use in the assay at a final concentration of 70 pM. Test compounds are prepared as 10 mM stock solution in DMSO, then diluted in 384-well plates, first in DMSO, then assay buffer. On the day of the assay, cells are washed 3 times with 100 μl assay buffer and then incubated for 60 min (37° C., 5% CO2) in 60 μl assay buffer containing 1 μM Fluo-4AM ester, 0.02% pluronic acid, and 1% BSA. The dye loading solution is then aspirated and cells are washed 3 times with 100 μl assay buffer. 30 μl of that same buffer is left in each well. Within the Fluorescent Imaging Plate Reader (FLIPR, Molecular Devices), test compounds are added to the plate in a volume of 25 μl, incubated for 5 min and finally 25 μl of agonist is added. Fluorescence is measured for each well at 1 second intervals for 5 minutes and the height of each fluorescence peak is compared to the height of the fluorescence peak induced by 70 pM Ala-6,12 orexin-A with buffer in place of antagonist. For each antagonist, IC50 value (the concentration of compound needed to inhibit 50% of the agonist response) is determined. Alternatively, compound potency can be assessed by a radioligand binding assay (described in Bergman et. al. Bioorg. Med. Chem. Lett. 2008, 18, 1425-1430) in which the inhibition constant (Ki) is determined in membranes prepared from CHO cells expressing either the OX1 or OX2 receptor. The intrinsic orexin receptor antagonist activity of a compound which may be used in the present invention may be determined by these assays.

Assay [1] concerns the target hOXIR (orexin-1 receptor) (Homo sapiens, UniProt O43613). The assay can be described thus: FLIPR Ca2+ Flux Assay, orexin-1 receptor (hOXIR FLIPR). The class given is cell-based. Particulars: CHO cells expressing the orexin-1 receptor (method text: rat; table head: hOXIR); agonist 70 pM Ala-6,12 human orexin-A. As to the method:
as §1

human orexin-2 receptor, sequence (O43614 whole entry): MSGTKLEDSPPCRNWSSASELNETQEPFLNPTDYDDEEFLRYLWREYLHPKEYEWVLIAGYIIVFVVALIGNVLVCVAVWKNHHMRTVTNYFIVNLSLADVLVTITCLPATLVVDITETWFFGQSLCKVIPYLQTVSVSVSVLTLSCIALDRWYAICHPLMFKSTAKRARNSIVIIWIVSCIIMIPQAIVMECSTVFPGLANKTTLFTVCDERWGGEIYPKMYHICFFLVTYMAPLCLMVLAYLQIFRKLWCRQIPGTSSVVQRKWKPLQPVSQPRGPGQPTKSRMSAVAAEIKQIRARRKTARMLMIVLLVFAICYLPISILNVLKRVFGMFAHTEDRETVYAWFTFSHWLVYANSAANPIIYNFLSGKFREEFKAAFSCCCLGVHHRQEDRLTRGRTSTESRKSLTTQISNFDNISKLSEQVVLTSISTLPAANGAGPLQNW

On to `C[C@@H]1CC[C@@H](n2ncc(C(C)(C)O)n2)CN1C(=O)c1ccccc1C1(C#N)CC1` [Example 1, 1-(2-((2R,5R)-5-(4-(2-Hydroxypropan-2-yl)-2H-1,2,3-triazol-2-yl)-2-methylpiperidine-1-carbonyl)phenyl)cyclopropanecarbonitrile], for which the IC50 at human orexin-2 receptor is 0.0138 µM; in assay [1], 1.16 µM.
Consider `C[C@@H]1CC[C@@H](n2ncc(C(C)(C)O)n2)CN1C(=O)c1ccccc1-c1ccccc1` [Example 2, [1,1′-Biphenyl]-2-yl((2R,5R)-5-(4-(2-hydroxypropan-2-yl)-2H-1,2,3-triazol-2-yl)-2-methylpiperidin-1-yl)methanone], for which the concentration for half-maximal inhibition (IC50) at human orexin-2 receptor amounted to 0.0162 µM; in assay [1] it was 0.483 µM.
Consider `CCCc1ncccc1C(=O)N1C[C@H](n2ncc(C(C)(C)O)n2)CC[C@H]1C` [Example 3, ((2R,5R)-5-(4-(2-Hydroxypropan-2-yl)-2H-1,2,3-triazol-2-yl)-2-methylpiperidin-1-yl)(2-propylpyridin-3-yl)methanone], for which the values for the IC50 (at human orexin-2 receptor; in assay [1]) were 1.06 µM and over 10 µM, respectively.
Consider `CCCc1ccccc1C(=O)N1C[C@H](n2ncc(C(C)(C)O)n2)CC[C@H]1C` [Example 4, ((2R,5R)-5-(4-(2-Hydroxypropan-2-yl)-2H-1,2,3-triazol-2-yl)-2-methylpiperidin-1-yl)(2-propylphenyl)methanone], for which the values for the half-inhibitory concentration (IC50) (at human orexin-2 receptor; in assay [1]) were 0.0159 µM and 8.11 µM, respectively.
For the compound `CC(C)c1ccccc1C(=O)N1C[C@H](n2ncc(C(C)(C)O)n2)CC[C@H]1C` [Example 5, ((2R,5R)-5-(4-(2-Hydroxypropan-2-yl)-2H-1,2,3-triazol-2-yl)-2-methylpiperidin-1-yl)(2-isopropylphenyl)methanone], the figures for the 50% inhibitory concentration (IC50) (at human orexin-2 receptor; in assay [1]) were 0.0713 µM and over 10 µM, respectively.
The matching figures for `C[C@@H]1CC[C@@H](n2ncc(C(C)(C)O)n2)CN1C(=O)c1ccccc1C1CC1` [Example 6, (2-Cyclopropylphenyl)((2R,5R)-5-(4-(2-hydroxypropan-2-yl)-2H-1,2,3-triazol-2-yl)-2-methylpiperidin-1-yl)methanone]: 0.0149 µM and 2.46 µM.
For the compound `C[C@@H]1CC[C@@H](n2ncc(C(C)(C)O)n2)CN1C(=O)c1cccnc1OC(F)F` [Example 7, (2-(Difluoromethoxy)pyridin-3-yl)((2R,5R)-5-(4-(2-hydroxypropan-2-yl)-2H-1,2,3-triazol-2-yl)-2-methylpiperidin-1-yl)methanone], the IC50 at human orexin-2 receptor was 0.0517 µM; in assay [1], over 10 µM.
In the case of `COC(=O)c1ncccc1C(=O)N1C[C@H](n2ncc(C(C)(C)O)n2)CC[C@H]1C` [Example 8, Methyl 3-((2R,5R)-5-(4-(2-hy-droxypropan-2-yl)-2H-1,2,3-triazol-2-yl)-2-methylpiperidine-1-carbonyl)picolinate], the IC50 was 1.78 µM on human orexin-2 receptor and over 10 µM in assay [1].
Regarding `C[C@@H]1CC[C@@H](n2ncc(C(C)(C)O)n2)CN1C(=O)c1ccccc1CC(F)(F)F` [Example 9, ((2R,5R)-5-(4-(2-Hydroxypropan-2-yl)-2H-1,2,3-triazol-2-yl)-2-methylpiperidin-1-yl)(2-(2,2,2-trifluoroethyl)phenyl)methanone], the IC50 at human orexin-2 receptor was 0.03 µM; in assay [1], over 10 µM.
As for `Cc1cnn(-c2ncccc2C(=O)N2C[C@H](n3ncc(C(C)(C)O)n3)CC[C@H]2C)c1` [Example 10, ((2R,5R)-5-(4-(2-Hydroxypropan-2-yl)-2H-1,2,3-triazol-2-yl)-2-methylpiperidin-1-yl)(2-(4-methyl-1H-pyrazol-1-yl)pyridin-3-yl)methanone], the values for the IC50 (on human orexin-2 receptor; in assay [1]) were 0.026 µM and over 10 µM, respectively.
For the compound `C[C@@H]1CC[C@@H](n2ncc(C(C)(C)O)n2)CN1C(=O)c1ccccc1SC(F)(F)F` [Example 11, 2-{2-[(3R,6R)-6-Methyl-1-({2-[(trifluoromethyl)sulfanyl]pheny}carbonyl)piperidin-3-yl]-2H-1,2,3-triazol-4-yl}propan-2-ol], the IC50 on human orexin-2 receptor amounted to 0.02 µM; in assay [1], 2.55 µM.
The matching figures for `C[C@@H]1CC[C@@H](n2ncc(C(C)(C)O)n2)CN1C(=O)c1cccnc1OCC(F)F` [Example 13, (2-(2,2-Difluoroethoxy)pyridin-3-yl)((2R,5R)-5-(4-(2-hydroxypropan-2-yl)-2H-1,2,3-triazol-2-yl)-2-methylpiperidin-1-yl)methanone]: 0.0143 µM and over 10 µM.
For `C[C@@H]1CC[C@@H](n2ncc(C(C)(C)O)n2)CN1C(=O)c1cccnc1OCC(F)(F)F` [Example 14, ((2R,5R)-5-(4-(2-Hydroxypropan-2-yl)-2H-1,2,3-triazol-2-yl)-2-methylpiperidin-1-yl)(2-(2,2,2-trifluoroethoxy)pyridin-3-yl)methanone], in that order: 0.0159 µM and 8.79 µM.
For `C[C@@H]1CC[C@@H](n2ncc(C(C)(C)O)n2)CN1C(=O)c1ccccc1OCC(F)(F)F` [Example 16, ((2R,5R)-5-(4-(2-Hydroxypropan-2-yl)-2H-1,2,3-triazol-2-yl)-2-methylpiperidin-1-yl)(2-(2,2,2-trifluoroethoxy)phenyl)methanone], in that order: 0.0228 µM and over 10 µM.
Regarding `CC(C)Oc1ccccc1C(=O)N1C[C@H](n2ncc(C(C)(C)O)n2)CC[C@H]1C` [Example 17, ((2R,5R)-5-(4-(2-Hydroxypropan-2-yl)-2H-1,2,3-triazol-2-yl)-2-methylpiperidin-1-yl)(2-isopropoxyphenyl)methanone], the IC50 on human orexin-2 receptor was determined as 0.0161 µM; in assay [1], 3.68 µM.
For `C[C@@H]1CC[C@@H](n2ncc(C(C)(C)O)n2)CN1C(=O)c1ccccc1OCC(F)F` [Example 18, (2-(2,2-Difluoroethoxy)phenyl)((2R,5R)-5-(4-(2-hydroxypropan-2-yl)-2H-1,2,3-triazol-2-yl)-2-methylpiperidin-1-yl)methanone], in that order: 0.015 µM and over 10 µM.
Consider `C[C@@H]1CC[C@@H](n2ncc(C(C)(C)O)n2)CN1C(=O)c1ccccc1OC(F)(F)F` [Example 19, ((2R,5R)-5-(4-(2-Hydroxypropan-2-yl)-2H-1,2,3-triazol-2-yl)-2-methylpiperidin-1-yl)(2-(trifluoromethoxy)phenyl)methanone], for which the half-inhibitory concentration (IC50) turned out to be 0.0121 µM at human orexin-2 receptor and 2.8 µM in assay [1].
For `COC(=O)c1ccccc1C(=O)N1C[C@H](n2ncc(C(C)(C)O)n2)CC[C@H]1C` [Example 20, Methyl 2-((2R,5R)-5-(4-(2-hydroxypropan-2-yl)-2H-1,2,3-triazol-2-yl)-2-methylpiperidine-1-carbonyl)benzoate], in that order: 0.0246 µM and over 10 µM.
As to `C[C@@H]1CC[C@@H](n2ncc(C(C)(C)O)n2)CN1C(=O)c1ccccc1OC(F)F` [Example 21, (2-(Difluoromethoxy)phenyl)((2R,5R)-5-(4-(2-hydroxypropan-2-yl)-2H-1,2,3-triazol-2-yl)-2-methylpiperidin-1-yl)methanone], the figures for the concentration for half-maximal inhibition (IC50) (on human orexin-2 receptor; in assay [1]) were 0.018 µM and over 10 µM, respectively.
Consider `C[C@@H]1CC[C@@H](n2ncc(C(C)(C)O)n2)CN1C(=O)c1ccccc1[C@@H]1CC1(F)F` [Example 22, 2-{2-[(3R,6R)-1-({2-[(1S)-2,2-difluorocyclopropyl]phenyl}carbonyl)-6-methylpiperidin-3-yl]-2H-1,2,3-triazol-4-yl}propan-2-ol], for which the IC50 at human orexin-2 receptor was determined as 0.0085 µM; in assay [1] it was 0.733 µM.
Take `C[C@@H]1CC[C@@H](n2ncc(C(C)(C)O)n2)CN1C(=O)c1ccccc1[C@H]1CC1(F)F` [Example 23, 2-{2-[(3R,6R)-1-({2-[(1R)-2,2-difluorocyclopropyl]phenyl}carbonyl)-6-methylpiperidin-3-yl]-2H-1,2,3-triazol-4-yl}propan-2-ol]: the values for the 50% inhibitory concentration (IC50) (at human orexin-2 receptor; in assay [1]) were 0.0469 µM and over 10 µM, respectively.
Regarding `COC(=O)c1cnn([C@@H]2CC[C@@H](C)N(C(=O)c3ccccc3-n3nccn3)C2)n1` [Example 24, Methyl 2-((3R,6R)-1-(2-(2H-1,2,3-triazol-2-yl)benzoyl)-6-methylpiperidin-3-yl)-2H-1,2,3-triazole-4-carboxylate], the IC50 at human orexin-2 receptor is 0.512 µM; in assay [1], over 10 µM.
